Results published in BindingDB's records for patent US20250129104 (Biosplice Therapeutics, 2025).

Biological target: Dual specificity tyrosine-phosphorylation-regulated kinase 1A (Homo sapiens, UniProt Q13627)
Experiment: DYRK1A Kinase Assay
Procedure: Each compound was dissolved in DMSO as a 10 mM stock and used to prepare compound source plates. Serial dilution (1:3, 11-point dose-response curves from 10 μM to 0.00016 μM) and compound transfer was performed using the ECHO 550 (Labcyte, Sunnyvale, CA) into 1536-well black-walled round bottom plates (Corning).The DYRK1A kinase assay was run using the Ser/Thr 18 peptide Z-lyte assay kit according to manufacturer's instructions (Life Technologies—a Division of Thermo-Fisher). This is a non-radioactive assay using fluorescence resonance energy transfer (FRET) between coumarin and fluorescein to detect kinase activity which is represented as a ratio of coumarin emission/fluorescein emission.Briefly, recombinant DYRK1A kinase, ATP and Ser/Thr peptide 18 were prepared in 1× Kinase buffer to final concentrations of 0.25 μg/mL, 15 μM, and 4 μM respectively. The mixture was allowed to incubate with the representative compounds for one hour at room temperature. All reactions were performed in duplicate. Unphosphorylated (“0% Control”) and phosphorylated (“100% control”) forms of Ser/Thr 18 served as control reactions. Additionally, an 11-point dose-response curve of Staurosporine (1 uM top) was run to serve as a positive compound control.After incubation, Development Reagent A was diluted in Development Buffer then added to the reaction and allowed to further incubate for one hour at room temperature. The plate was read at Ex 400 Em 455 to detect the coumarin signal and Ex 400 Em 520 to measure the signal (EnVision Multilabel Plate Reader, PerkinElmer).

| EC50 [nM] | Compound |
| --- | --- |
| 35.2 | C[C@]1(O)CC[C@H](Nc2ncc3c(-c4ccn5nccc5c4)c[nH]c3n2)CC1 [US20250129104, Compound 2238] |
| 5440 | COc1nc(N[C@H](C)C(F)(F)F)c2c(-c3ccc4nc(C)n(CC(F)F)c4n3)c[nH]c2n1 [US20250129104, Compound 2817] |
| 1.4 | COc1nc(N[C@H]2CC[C@@](C)(O)CC2)nc2[nH]cc(-c3ccc4ncnn4c3)c12 [US20250129104, Compound 3053] |
